Measurements as given in EP2649983A1, “Compounds which inhibit neuronal exocytosis (II)” (Lipotec, S.A., priority 2012, dated 2013).
Residues, ends and D or L forms follow the SMILES beside them. No end group written: not given here. *: point of attachment. Palmitoyl = CCCCCCCCCCCCCCCC(=O)*; NHhexadecyl = CCCCCCCCCCCCCCCCN*; Myristoyl = CCCCCCCCCCCCCC(=O)*

Columns and labels:
SNARE complex [1] = assay: Inhibition of SNARE complex formation, complex detected by electrophoresis (SDS-PAGE); assay type: binding
Procedure: VAMP (6 µM), syntaxin (6 µM) and the compound of the invention (5 mM or 1 mM compounds) were incubated for 3 hours. Subsequently, SNAP-25 (0.6 µM) was added and the mixture was incubated for an additional 15 hours to allow the formation of the SNARE complex. After incubation, the loading buffer (Laemli Simple Buffer) was added and the mixture was analyzed by 10% acrylamide SDS-PAGE in gel. The amount of complex was determined by MediaCybernetics image analysis software Image-Pro Plus.
The percentage of inhibition of the formation of the complex is inversely proportional to the quantity of SNARE complex detected.

[2] = tested on: human neuroblastoma cell line; assay: Release of noradrenaline induced by TPA/ionomycin in a neuroblastoma cell line, quantified by ELISA; assay type: cell-based; settings: 60 minutes pre-incubation, TPA/ION = 100.00
Procedure: The induction of the release of noradrenaline with TPA (12-O-tetradecanoylphorbol-13-acetate)/lonomycin enables direct measurement of neuronal exocytosis. For the study of the inhibitory effect of the compounds of the invention on the release of noradrenaline, cells of a human neuroblastoma cell line were pre-incubated (1x10^6 cells/well) for 60 minutes with the compound of the invention (1 µM, 10 µM, 100 µM, 500 µM or 1 mM compounds), and afterward the release of noradrenaline was induced. The release of the noradrenaline neurotransmitter was induced by an 8 minute pretreatment with a solution of 12-O-tetradecanoylphorbol-13-acetate (TPA) 100 nM, which mobilized the intracellular vesicles which contained the neurotransmitter; followed by a 5 minute incubation with TPA/lonomycin (100 nM/10 µM), which induced the release of the neurotransmitter contained in these vesicles. […] For this, absorbance at 405 nm was measured in Thermo Scientific Multiskan Ascent equipment.
The blocking of the SNARE complex by the compounds of the invention lead to an inhibition of neuronal exocytosis and therefore, a decrease in the levels of released noradrenaline (Table 6).

SNARE complex [3] = assay: Inhibition of SNARE complex formation (competition versus SNAP-25), complex detected by ELISA; assay type: binding
Procedure: With the aim of determining the capacity of inhibition of the SNARE complex formation by the compounds of the invention, the competitive inhibition of the compounds compared to SNAP-25 was studied with regards to the formation of this complex. The proportion of SNARE complex formed was determined by the ELISA technique, using one of the proteins from the complex bound to GST. In a 96-well plate VAMP was immobilized (using a 0.037 µM solution) and subsequently the free spaces were blocked with BSA (3%). Parallel to this process, SNAP-25 bound to GST (0.0185 µM), syntaxin (0.037 µM) and a compound of the invention (2.5 mM and 0.5 mM compounds) were incubated for 1 hour. After incubation, the samples were transferred to the plate with immobilized VAMP and were incubated for 1 hour to allow the formation of the SNARE complex. Afterward, the plate was washed and the complex was detected by a primary antibody anti-GST (Antibody anti-GST epitope TAG, Fisher Cat. no:PA1-982A). The reading was carried out at a wavelength of 490 nm in a TECAN GENios spectrophotometric reader.
Table 4 showns the results of the competitive inhibition of the formation of the SNARE complex by the compounds of the invention versus SNAP-25. The percentage of inhibition of the formation of the complex is inversely proportional to the quantity of SNARE complex spectrophotometrically detected.

[4] = concentration of compound 2.5 mM
[5] = concentration of compound 0.5 mM

Compound: CCCCCCCCCCCCCCCC(=O)N[C@@H](CCC(=O)O)C(=O)N[C@@H](CC(=O)O)C(=O)N[C@@H](CC(C)C)C(=O)N[C@@H](CCCCN)C(=O)N[C@@H](CCCNC(=N)N)C(=O)N[C@@H](Cc1c[nH]c2ccccc12)C(=O)N[C@@H](CCSC)C(N)=O [Palm-SEQ ID NO:14-NH2] (Palmitoyl-EDLKRWM-NH2)
- % inhibition formation SNARE complex (SNARE complex [1]; concentration of compound 5 mM): 93%

Compound: Ac-EDLKRWM-NH2 [Ac-SEQ ID NO:14-NH2]
- % RELEASED NORADRENALINE Average ([2]; 10 µM): 84.96%
- % RELEASED NORADRENALINE Average ([2]; 100 µM): 85.97%
- % RELEASED NORADRENALINE Average ([2]; 1000 µM): 45.78%

Compound: Ac-DHFQQRM-NH2 [Ac-SEQ ID NO:24-NH2]
- % RELEASED NORADRENALINE Average ([2]; 1 µM): 90.63%
- % RELEASED NORADRENALINE Average ([2]; 10 µM): 97.06%
- % RELEASED NORADRENALINE Average ([2]; 100 µM): 88.95%
- % RELEASED NORADRENALINE Average ([2]; 500 µM): 78.11%
- % RELEASED NORADRENALINE Average ([2]; 1000 µM): 67.90%

Compound: CCCCCCCCCCCCCCCC(=O)N[C@@H](CCC(N)=O)C(=O)N[C@@H](Cc1c[nH]cn1)C(=O)N[C@@H](CC(C)C)C(=O)N[C@@H](Cc1c[nH]cn1)C(=O)N[C@@H](CC(N)=O)C(=O)N[C@H](C(=O)N[C@@H](CCSC)C(N)=O)C(C)C [Palm-SEQ ID NO:3-NH2] (Palmitoyl-QHLHNVM-NH2)
- % inhibition formation SNARE complex (SNARE complex [3]; [4]): 51%

Compound: CCCCCCCCCCCCCC(=O)N[C@@H](CC(N)=O)C(=O)N[C@@H](Cc1c[nH]cn1)C(=O)N[C@@H](Cc1ccccc1)C(=O)N[C@@H](CC(C)C)C(=O)N[C@@H](CC(N)=O)C(=O)N[C@@H](Cc1c[nH]c2ccccc12)C(=O)N[C@@H](CCSC)C(N)=O [Myr-SEQ ID NO:15-NH2] (Myristoyl-NHFLNWM-NH2)
- % inhibition formation SNARE complex (SNARE complex [1]; concentration of compound 1 mM): 23%
- % inhibition formation SNARE complex (SNARE complex [1]; concentration of compound 5 mM): 76%

Compound: CCCCCCCCCCCCCCCC(=O)N[C@@H](CC(=O)O)C(=O)N[C@@H](Cc1c[nH]cn1)C(=O)N[C@@H](Cc1ccccc1)C(=O)N[C@@H](CC(C)C)C(=O)N[C@@H](CC(N)=O)C(=O)N[C@@H](Cc1c[nH]c2ccccc12)C(=O)N[C@@H](CCSC)C(N)=O [Palm-SEQ ID NO:34-NH2] (Palmitoyl-DHFLNWM-NH2)
- % inhibition formation SNARE complex (SNARE complex [3]; [4]): 51%

Compound: CCCCCCCCCCCCCCCC(=O)N[C@@H](CC(=O)O)C(=O)N[C@@H](Cc1c[nH]cn1)C(=O)N[C@@H](Cc1ccccc1)C(=O)N[C@@H](CCC(N)=O)C(=O)N[C@@H](CCC(N)=O)C(=O)N[C@@H](CCCNC(=N)N)C(=O)N[C@@H](CCSC)C(N)=O [Palm-SEQ ID NO:24-NH2] (Palmitoyl-DHFQQRM-NH2)
- % inhibition formation SNARE complex (SNARE complex [3]; [5]): 36%
- % inhibition formation SNARE complex (SNARE complex [1]; concentration of compound 1 mM): 17%
- % inhibition formation SNARE complex (SNARE complex [1]; concentration of compound 5 mM): 66%

Compound: Ac-DHFLDWM-NH2 [Ac-SEQ ID NO:25-NH2]
- % RELEASED NORADRENALINE Average ([2]; 1 µM): 99.59%
- % RELEASED NORADRENALINE Average ([2]; 10 µM): 94.48%
- % RELEASED NORADRENALINE Average ([2]; 100 µM): 74.79%
- % RELEASED NORADRENALINE Average ([2]; 500 µM): 48.07%
- % RELEASED NORADRENALINE Average ([2]; 1000 µM): 41.05%

Compound: Ac-EHLKQWM [Ac-SEQ ID NO:1-OH]
- % inhibition formation SNARE complex (SNARE complex [3]; [5]): 29%

Compound: CCCCCCCCCCCCCCCCNC(=O)[C@H](CCSC)NC(=O)[C@H](Cc1c[nH]c2ccccc12)NC(=O)[C@H](CCCNC(=N)N)NC(=O)[C@H](CCCCN)NC(=O)[C@H](CC(C)C)NC(=O)[C@H](CC(=O)O)NC(=O)[C@H](CCC(=O)O)NC(C)=O [Ac-SEQ ID NO:14-NH-(CH2)15-CH3] (Ac-EDLKRWM-NHhexadecyl)
- % inhibition formation SNARE complex (SNARE complex [3]; [4]): 35%

Compound: Ac-EHLKQWM-NH2 [Ac-SEQ ID NO:1-NH2]
- % RELEASED NORADRENALINE Average ([2]; 1 µM): 96.14%
- % RELEASED NORADRENALINE Average ([2]; 10 µM): 93.07%
- % RELEASED NORADRENALINE Average ([2]; 100 µM): 79.59%
- % RELEASED NORADRENALINE Average ([2]; 500 µM): 49.08%
- % RELEASED NORADRENALINE Average ([2]; 1000 µM): 42.48%

Compound: CCCCCCCCCCCCCCCC(=O)N[C@@H](CCC(=O)O)C(=O)N[C@@H](Cc1c[nH]cn1)C(=O)N[C@@H](CC(C)C)C(=O)N[C@@H](CCCCN)C(=O)N[C@@H](CCC(N)=O)C(=O)N[C@@H](Cc1c[nH]c2ccccc12)C(=O)N[C@@H](CCSC)C(N)=O [Palm-SEQ ID NO:1-NH2] (Palmitoyl-EHLKQWM-NH2)
- % inhibition formation SNARE complex (SNARE complex [3]; [5]): 21%
- % inhibition formation SNARE complex (SNARE complex [3]; [4]): 47%

Compound: CCCCCCCCCCCCCCCC(=O)N[C@@H](CC(N)=O)C(=O)N[C@@H](Cc1c[nH]cn1)C(=O)N[C@@H](Cc1ccccc1)C(=O)N[C@@H](CC(C)C)C(=O)N[C@@H](CC(N)=O)C(=O)N[C@@H](Cc1c[nH]c2ccccc12)C(=O)N[C@@H](CCSC)C(N)=O [Palm-SEQ ID NO:15-NH2] (Palmitoyl-NHFLNWM-NH2)
- % inhibition formation SNARE complex (SNARE complex [3]; [4]): 21%
- % inhibition formation SNARE complex (SNARE complex [1]; concentration of compound 1 mM): 22%
- % inhibition formation SNARE complex (SNARE complex [1]; concentration of compound 5 mM): 74%

Compound: EHLKQWM-NH2 [H-SEQ ID NO:1-NH2]
- % inhibition formation SNARE complex (SNARE complex [3]; [5]): 30%
- % inhibition formation SNARE complex (SNARE complex [3]; [4]): 58%

Compound: CCCCCCCCCCCCCCCC(=O)N[C@@H](CC(=O)O)C(=O)N[C@@H](Cc1c[nH]cn1)C(=O)N[C@@H](Cc1ccccc1)C(=O)N[C@@H](CC(C)C)C(=O)N[C@@H](CC(=O)O)C(=O)N[C@@H](Cc1c[nH]c2ccccc12)C(=O)N[C@@H](CCSC)C(N)=O [Palm-SEQ ID NO:25-NH2] (Palmitoyl-DHFLDWM-NH2)
- % inhibition formation SNARE complex (SNARE complex [3]; [4]): 53%
- % inhibition formation SNARE complex (SNARE complex [1]; concentration of compound 1 mM): 36%
